Results as given in US20170088584A1, “USE OF […] DRUGS FOR OS[…] AND BONE REGENERATION” (UNIVERSIDAD NACIONAL AUTONOMA DE MEXICO, priority 2015, published 2017).
“Also recorded” adds a separate entry of the source.

Experiments:
[1] = system: ovariectomized Wistar rats with osteoporosis; test: resistance to compression of the 5th lumbar vertebra, ovariectomized osteoporotic rat model; assay type: in vivo, Wistar rats (Rattus norvegicus); settings: 20-50 μg/kg i.p. daily for 90 days, started 5 months after ovariectomy; end of treatment
Protocol: FIG. 12 corresponds to a graph showing the resistance to compression of the vertebral body of the 5th lumbar vertebra obtained from Wistar rats at the end of the 90-day experimental period, 5 months after ovariectomy. Resistance Tests were performed using an Inströn Universal Testing Machine (mod. 5567) in the body of the 5th lumbar vertebra compressed at a speed of 1 mm/min up to achieve sample fracture. The exerted force is expressed in N/mm^2. […].
(§1) We used 48 female rats of the Wistar strain, 3 months of age, with a weight of 250±20 gr. The animals were acclimated for 14 days at an ambient temperature of 22° C. with a photoperiod of 12 hours and relative humidity of 50%; food and water were ad libitum. The rats were sedated with acepromazine maleate (Relax 0.5 g/100 ml) at a dose of 20 μg/Kg of weight and as general anesthetic, tiletamine and zolazepam were used at a concentration of 25 mg/kg of weight.
Anesthetic maintenance was performed with constant flow of isoflurane. Once the rats were anesthetized we proceeded to perform the bilateral ovariectomy procedure for what the anesthetized rat was placed in lateral decubitus and shaved from the last rib forming a rectangle of approximately 4×3 cm. […] The 5th dorsal vertebra of the rats was analyzed by means of computed micro tomography (μCT) prior to euthanasia with CO2 on day 90 of treatment. […]

[2] = system: ovariectomized Wistar rats with osteoporosis; test: bone microarchitecture by histology (Masson's trichrome) and μCT, ovariectomized osteoporotic rat model; assay type: in vivo, Wistar rats (Rattus norvegicus); settings: 20-50 μg/kg i.p. daily 90 days; for μCT three-dimensional reconstruction of 5th lumbar vertebra / histology of femur epiphysis microarchitecture: 5 months after ovariectomy; for histology of femur epiphysis microarchitecture: Masson's trichrome; for histology of the body of the 5th lumbar vertebra: transverse and sagittal planes
Protocol: In FIGS. 5 and 6 histological sections of 5 μm thick and stained with Masson's Trichromic stain may be observed in which the microarchitecture of the epiphysis of the femur of the Wistar rats is analyzed in detail. Letter (A) of both figures corresponds to the group with no treatment which is the healthy control group. In the histological section stained with Masson's Trichromic stain, normal microarchitecture of the femoral epiphysis is observed with the cancellous bone and medullar spaces filled with bone marrow and bone occupying inter-medullar spaces. The epiphyseal plate and articular cartilage are also observed. […] Treatment with the vehicle lasted 90 days. […] These spaces have variable sizes. Articular cartilage and epiphyseal plate are also noted. […] Microphotography showing the microarchitecture of the femur epiphysis of Wistar rats. […] Articular cartilage and epiphyseal plate are also observed.
In FIGS. 7 and 8, microphotographs of histological sections of 5 μm thick of the 5th lumbar vertebra in the transverse and sagittal plane stained with Masson's Trichromic stain. Panel (A) of FIGS. 7 and 8 corresponds to the body of the 5th lumbar vertebra in the transverse (a) and sagittal (a′) planes of normal Wistar rats where cortical bone, bone trabeculate and spaces filled with bone marrow may be observed. Panel (B) of FIGS. 7 and 8 corresponds to the body of the 5th lumbar vertebra in the transverse (b) and sagittal (b′) planes of osteoporotic Wistar rats treated with physiological saline solution where cortical bone and bone trabeculate are observed with lesser width than the one of healthy Wistar rats. Medullar spaces are also observed and they are filled with fatty tissue with larger areas than those found in healthy controls.
as §1
Anesthetic maintenance was performed with constant flow of isoflurane. Once the rats were anesthetized we proceeded to perform the bilateral ovariectomy procedure for what the anesthetized rat was placed in lateral decubitus and shaved from the last rib forming a rectangle of approximately 4×3 cm. This area is disinfected with an electrolyzed super oxidant solution with neutral pH (Veteribac). Then a linear incision of approximately 2 cm up was performed with a scalpel to reach the muscle and expose the abdominal cavity. With extreme care, the cervix was located and identified. The cervix was ligated exactly on its middle portion with 6/0 polyglycolic acid sutures and subsequently the ovaries were eliminated with a scalpel. It was sutured by planes (abdominal muscles and skin) with 4/0 polyglycolic acid sutures and finally, the surgical area was cleaned with hydrogen peroxide. The rats were maintained in vivarium conditions during 5 months with 12 hours of light and 12 hours of darkness, at an average temperature of 22° C. with food and water ad libitum. […] Once this period concluded, 32 ovariectomized rats were divided into 4 groups of 8 rats each. […] The control group of osteoporotic rats […] was treated with physiological saline solution (pH 7.4) for 90 days. The healthy control group (16) rats received no treatment at all. Blood was obtained from all groups at the beginning and end of treatment (90 days). The 5th dorsal vertebra of the rats was analyzed by means of computed micro tomography (μCT) prior to euthanasia with CO2 on day 90 of treatment. The femur and 5th dorsal vertebrae were obtained, fixed in 10% paraformaldehyde and embedded in paraffin. […]

[3] = system: Human Osteoblasts derived from alveolar bone; test: MTT cytotoxicity and cell proliferation assay; assay type: cell-based; settings: 5 μg/ml, 4 days, medium with 0.5% fetal bovine serum
Protocol: The cytotoxic effect and the effect on cell proliferation was assessed by means of the MTT colorimetric assay (tetrazolium) [3-(4,5-dimethylthazol-2-yl)-2,5-diphenyl tetrazoliumbromide], during 1, 2, 3 and 4 days. Human Osteoblasts derived from alveolar bone were planted at a density of 1×10^4 in plates of 96 wells. The cells were treated with the peptides (independently) for 4 days with concentrations of 1, 3 and 5 μg/ml of each of the peptides. The medium was replaced daily, and the peptides administered in the same way. The controls used were medium with fetal bovine serum at 10% (positive control) and medium with fetal bovine serum at 0.5% (negative control.) the peptides were administered at the various concentrations contained in the medium at 0.5%. At the end of each day of treatment, 10 μL of MTT (3-(4,5-dimethylthiazol-2-yl)-2,5-diphenyltetrazolium bromide) solution (5 mg/mL) was added to the wells and incubated for 3 hours. At the end the supernatant was removed and extraction was carried out by means of DMSO for 1 hour at 37° C. The optical density of the supernatant was read in a reader for ELISA at 570 nm. The optical density reflects the number of living cells present in the culture. […] The peptide […] (SEQ ID NO: 2) at a 5 μg/ml concentration promotes cell proliferation to a 92% with respect to the positive control (10% fetal bovine serum) (B).

[4] = system: critical-size calvarial defect in Wistar rats; test: regeneration of critical-size calvarial defect with peptide in gelatin sponge scaffold; assay type: in vivo; settings: 20-50 μg peptide per gelatin sponge (Gelfoam) disk, 9 mm defect, after 16 weeks
Description: These peptides have been artificially synthesized and then combined with a three-dimensional scaffold made of gelatin (gelatin sponge), thus it was used for regeneration of critical size bone defects in an animal model: two groups of 14 male Wistar rats of approximately 250±20 grams of weight were used. Anesthesia of the rats was achieved through intraperitoneal injection of ketamine. The critical size defect was done by performing a 3 cm incision in the calvarial bone and then lifting a mucoperiostial flap. Subsequently, with a 9 mm trephine, a defect was created in the rat's calvarial bone. In the experimental group the formulation was introduced. It consisted of a 9 mm-diameter, porous, three-dimensional, gelatin-based (Gelfoam) disk containing the peptide at a concentration of 20-50 μg/disk. Previously, the dimensional scaffold (gelatin sponge) was incubated with a concentration of the corresponding peptide at 20-50 μg/disk of gelatin sponge and was vacuum dried. Control animals were treated only with a disk of gelatin sponge and a vehicle for re-suspension of the peptide (phosphate buffer pH 7.4) and another group remained without treatment. Blood supply is ensured at the surgical site. The operation site was sealed with Satin S-100, which consists primarily in gelatin. At the end of 16 weeks, the tissues were fixed with 10% formaldehyde and embedded in paraffin. […]

[5] = system: ovariectomized Wistar rats with osteoporosis; test: histology of liver, kidney, heart, lung, brain, spleen, muscle after 90 days of peptide administration; assay type: in vivo, Wistar rats (Rattus norvegicus); settings: 20-50 μg/kg i.p. for 90 days
Protocol: The control tissues in Panel (A) correspond to: normal tissues: L=liver, K=kidney, H=heart, Lu=lung, B=brain, M=muscle, S=spleen. Panel B) tissues of Wistar rats with osteoporosis treated with the pharmaceutical formulations object of this invention; L=liver, K=kidney, H=heart, Lu=lung, B=brain, S=Spleen M=muscle. […] This means that the synthetic peptides are harmless drugs for osteoporosis treatment, producing no adverse or secondary reactions at cellular or tissue level.

[6] = biodistribution of peptide marked with pertechnetate (99mTc); assay type: in vivo, Wistar rats
Protocol: To determine the bio distribution of the peptides object of this invention, they were marked using technetium in the form of pertechnetate (TcO4−). In order to perform the marking, a working solution which contained: 40 ug of the peptides object of this invention, 50 ul of tartrate (2 mg/ml of acetate buffer pH5), 10 μl of SnCl2 (2 mg/ml 0.1 N HCl), 50 μl of gentisic acid (1 mg/ml) and 50 μl of 99m Tc—Na TCO4− (5 mCi) was prepared. Male Wistar rats of 250 g of weight which were at a temperature of 22° C. with a photoperiod of 12 hours and relative humidity at 50% were used. Food and water was ad libitum. To assess bio distribution, groups of three rats were formed and injected intraperitoneally with 40 μl of the marked peptide. They were sacrificed by an overdose of anesthetic at 30’, 1, 3, 6 and 24 hours. Blood samples from the heart, lung, liver, spleen, kidneys, stomach, small intestine, large intestine, muscle, bone, thyroid, brain and tooth were collected. These organs were weighed on an analytical balance and subsequently placed in a NaI(TI) solid scintillation counter to detect the activity of each one of the organs. With this procedure, the percentage of the injected dose per gram of tissue (% ID/g) was obtained.

Substance | resistance to compression of 5th lumbar vertebra, difference compared to healthy control [1] [%] | μCT three-dimensional reconstruction of 5th lumbar vertebra [2] | histology of femur epiphysis microarchitecture [2] | histology of the body of the 5th lumbar vertebra [2] | cell proliferation with regard to the positive control (10% fetal bovine serum) [3] [%] | filling of the critical-size calvarial defect with bone [4] [%] | histological alteration of liver, kidney, heart, lung, brain, spleen, muscle [5] | percentage of injected dose per gram of tissue (% ID/g) ([6]; bone, 30′) [%] | percentage of injected dose per gram of tissue (% ID/g) ([6]; bone, 1 hour) [%] | percentage of injected dose per gram of tissue (% ID/g) ([6]; bone, 24 hours) [%] | percentage of injected dose per gram of tissue (% ID/g) ([6]; kidney, 1 hour) [%] | percentage of injected dose per gram of tissue (% ID/g) ([6]; kidney, 3 hours) [%] | percentage of injected dose per gram of tissue (% ID/g) ([6]; kidney, 6 hours) [%] | percentage of injected dose per gram of tissue (% ID/g) ([6]; kidney, 24 hours) [%] | percentage of injected dose per gram of tissue (% ID/g) ([6]; large intestine, 30′ after i.p. injection) [%] | percentage of injected dose per gram of tissue (% ID/g) ([6]; large intestine, 24 hours) [%] | percentage of injected dose per gram of tissue (% ID/g) ([6]; liver, 1 hour) [%] | percentage of injected dose per gram of tissue (% ID/g) ([6]; liver, 24 hours) [%]
AVIFM | 2 | cancellous bone is present in almost the entire vertebral body | bone trabeculae forms a network structure similar to the microarchitecture of healthy control group; also recorded: full medullar spaces without evidence of osteoporotic spaces and with normal bone microarchitecture | cortical bone is observed similar to that of healthy Wistar rats | 82 | 100 |  |  |  |  |  |  |  |  |  |  |  | 
MGTSSTDSQQAQHRRCSTSN | 19 | cancellous bone is present in almost the entire vertebral body | bone trabeculae forms a network structure similar to the microarchitecture of healthy control group; also recorded: full medullar spaces without evidence of osteoporotic spaces and with normal bone microarchitecture | cortical bone is observed similar to that of healthy Wistar rats | 92 | 100 | no histological feature that indicates that peptide administration in physiological saline solution causes microscopic alteration in these tissues | 1.3 | 1.4 | 0.4 | 1.6 | 2.6 | 1.3 | 0.9 | 3.6 | 0.006 | 3.4 | 0.2
